The record followed here is ChEMBL document CHEMBL4270494, “Recent insights into synthetic β-carbolines with anti-cancer activities” (Eur J Med Chem, 2017).

The term IC50 denotes the midpoint of a concentration-inhibition curve.

SMILES strings stand for the structures. Where a name gives a salt, the structure may show the parent alone.

One assay deals with A-375. As to the kind of experiment: Cytotoxicity against human A375 cells. Type of assay: functional, cell-based.
A further assay relates to NCI-H1299. As to the kind of experiment: Cytotoxicity against human NCI-H1299 cells. Type of assay: functional, cell-based.
A further assay relates to IMR-90. The assay is described as follows: Cytotoxicity against human IMR90 cells. The format is functional, cell-based.
A further assay concerns B16. As to the kind of experiment: Cytotoxicity against mouse B16 cells assessed as reduction in cell viability incubated for 48 hrs by MTT assay. Type of assay: functional, cell-based. To be noted: B16, 48 h.
A further assay concerns A549. As to the kind of experiment: Cytotoxicity against human A549 cells assessed as reduction in cell viability incubated for 48 hrs by MTT assay. The format is functional, cell-based. The conditions noted are these: A549, 48 h. A general note: Formazan colour is commonly taken as a measure of viable cells.
Another assay relates to HT-29. As to the kind of experiment: Cytotoxicity against human HT-29 cells assessed as reduction in cell viability incubated for 48 hrs by MTT assay. The format is functional, cell-based. The conditions noted are these: HT-29, 48 h.
Another assay deals with PC-3. As to the kind of experiment: Cytotoxicity against human PC3 cells assessed as reduction in cell viability incubated for 48 hrs by MTT assay. The conditions noted are these: PC-3, 48 h. Type of assay: functional, cell-based.
Assay [1] relates to MCF7. The assay is described as follows: Cytotoxicity against human MCF7 cells by MTT assay. The format is functional, cell-based.
Assay [2] concerns MCF7. As to the kind of experiment: Induction of apoptosis in human MCF7 cells by Annexin V-FITC dual staining based flow cytometry (reference value: 0.03%). The format is functional. On the technique in general: Flow cytometry measures light scatter and fluorescence of single cells or particles in a stream.
A further assay has as its system CCRF S-180. The assay is described as follows: Antitumor activity against mouse S180 cells implanted in ICR mouse assessed as inhibition of tumor growth at 0.1 umol/kg, ip for 7 consecutive days starting 24 hrs after tumor cell inoculation relative to untreated control. The format is functional. The conditions noted are these: CCRF S-180, ip, read-out: TGI.
The subject of another assay is HeLa. The assay is described as follows: Cytotoxicity against human HeLa cells by MTT assay. The format is functional, cell-based.
The next assay has as its system HepG2. The assay is described as follows: Cytotoxicity against human HepG2 cells by MTT assay. Type of assay: functional, cell-based.
In another assay the test system is HL-60. As to the kind of experiment: Cytotoxicity against human HL60(TB) cells incubated for 48 hrs by SRB assay. To be noted: HL-60, 48 h, read-out: LC50 (the source's name). Type of assay: functional. On the technique in general: Sulforhodamine B stains cellular protein and so reports cell mass.

As to `c1ccc2c(c1)[nH]c1c(CNCCOCCNCc3nccc4c3[nH]c3ccccc34)nccc12`, the IC50 in the assay with A-375 was 3 µM; in the assay with NCI-H1299 it was 1.6 µM; in the assay with IMR-90 it was 1.6 to 201 µM.

In the case of `COc1cc(C(=O)/C=C/c2cc3c([nH]c4ccccc43)c(-c3cc(OC)c(OC)c(OC)c3)n2)cc(OC)c1OC`, the IC50 with B16 is 6.37 µM; in the assay on A549, 5.3 µM; in the assay with HT-29, 23.1 µM; with PC-3 it was 19.6 µM.

Consider `O=C(/C=C/c1cc2c([nH]c3ccccc32)c(-c2ccc(C(F)(F)F)cc2)n1)c1ccco1`, for which the IC50 in the assay with MCF7 [1] fell in the range of 1.56 to 5.29 µM. For the same compound, in the assay with MCF7 [2], the Activity was found to be 58.29%.

As for `COc1cc(-c2nc(C(=O)N[C@@H](Cc3c[nH]c4ccccc34)C(=O)N[C@@H](Cc3c[nH]c4ccccc34)C(=O)N[C@@H](CO)C(=O)OCc3ccccc3)cc3c2[nH]c2ccccc23)ccc1O`, the inhibition in vivo at 0.1 µmol/kg in the assay on CCRF S-180 was 62.9%.

Consider `CC(=O)N1N=C(c2ccco2)CC1c1cc2c([nH]c3ccccc32)c(-c2ccc(C(F)(F)F)cc2)n1` (configuration not stated), for which the IC50 with MCF7 [1] lay within 1.56 to 5.29 µM. Besides, the Activity in the assay on MCF7 [2] was found to be 62.64%.

Consider `COC(=O)c1cc2c([nH]c3ccccc32)c(-c2ccc(OCc3cn(-c4cccc(Cl)c4Cl)nn3)cc2)n1`, for which the IC50 was 46 µM in the assay with HeLa and 32 µM in the assay with HepG2.

For the compound `COc1ccc2[nH]cc(-c3nccc4c3[nH]c3ccc(OC)cc34)c2c1`, the CC50 with HL-60 turned out to be 4.2 µM.

On to `CC[C@H](C)[C@H](NC(=O)[C@H](Cc1c[nH]c2ccccc12)NC(=O)[C@H](Cc1c[nH]c2ccccc12)NC(=O)c1cc2c([nH]c3ccccc32)c(-c2ccc(O)c(OC)c2)n1)C(=O)OCc1ccccc1`, for which, in the assay with CCRF S-180, the inhibition in vivo at 0.1 µmol/kg amounted to 63.4%.

As for `COc1cccc2c1C(=O)c1c(O)c3c(c(O)c1C2=O)C[C@@](O)(C(=O)CO)C[C@@H]3O[C@H]1C[C@H](N)[C@H](O)[C@H](C)O1` [DOXORUBICIN HYDROCHLORIDE], the inhibition in vivo at 0.1 µmol/kg in the assay with CCRF S-180 came out at 61.1%.
